Laboratory results taken from PMC10604444, “Extra-Synaptic GABAA Receptor Potentiation and Neurosteroid-Induced Learning Deficits Are Inhibited by GR3027, a GABAA Modulating Steroid Antagonist” (Biomolecules, 2023).

Target: T1, human α1β2γ2L GABAA receptors expressed in HEK-293 cells (Homo sapiens, UniProt P14867+P47870)
T1 construct: The coding regions of the human GABAA receptor subunits were then amplified by PCR; expressed in transfected cells; host or cells: HEK-293 (permanently transfected, pcDNA3.1 vectors, CMV promoter)
Assay: Whole-cell patch clamp of GABA/THDOC-evoked currents, synaptic protocol (Dynaflow)
Type: cell-based
Settings: for Reduction of AUC of THDOC-induced GABA response: n = 8, p ≤ 0.05
Excerpt: Wild-type HEK-293 cells (passage 4, originating from Pasteur Institute, Paris, France) were permanently transfected with vectors including the human CMV promoter for the constitutive expression of the human α5, β3, and γ2L GABAA receptor subunits (α5β3γ2L) or the human α1, β2, and γ2L GABAA receptor subunits (α1β2γ2L). The production of the plasmids used in the sub-cloning of the different subunits is published in Rahman et al..
The electrophysiological recordings from HEK-293 cells were performed with the whole-cell voltage clamp technique, at room temperature (21–23 °C). After compensation for liquid junction potential, a steady holding potential of −17 mV was used in all experiments. Patch pipettes were pulled from borosilicate glass (Bergman Labora AB, Danderyd, Sweden) and polished to a resistance of 2–5 MΩ when filled with intracellular solution and immersed in a bath (extracellular) solution (for solutions, see below). The pipette tips were filled by immersion in standard intracellular solution and subsequent back-filling with intracellular solution. The recordings were made using an Axopatch 200B amplifier and a Digidata 1322A (Axon Instruments, Foster City, CA, USA) controlled via a Pentium processor-based personal computer. Data were acquired using the pCLAMP software sampled at 10 kHz, filtered at 2–10 kHz, and analyzed with Clampfit (versions 9.0, both from Axon Instruments, Foster City, CA, USA). A series resistance between the pipette and cell membrane not higher than 20 MΩ was accepted. No series resistance compensation was used. The stability of series resistance was monitored repeatedly from the time course of capacitative transients during the experiments. The measured liquid junction potential between extracellular and intracellular solutions was subtracted from all data presented, as previously described. All experiments were performed at room temperature (21–23 °C).
In all electrophysiological experiments, tetrahydro-deoxycorticosterone (THDOC) was used as a positive GABAA receptor steroid modulator (PAM) to mimic the effect of AP on central GABAA channels. […] THDOC (Sigma Chemical Co., St. Louis, MO, USA) and GR3027 (3α-ethynyl, 3β-hydroxyl, 5α-androstan-17-oxime, golexanolone, Umecrine Cognition AB, Stockholm, Sweden) were dissolved in dimethyl sulfoxide (DMSO) using ultrasound, for the preparation of solutions containing a final DMSO concentration of 0.1%. GR3027 was discovered within a series of molecules developed and patented by T. Bäckström and G. Ragagnin, (patent WO 2008/063128). All solutions were complemented with DMSO to achieve the same final concentration as in the steroid-containing test solution. GABA (Sigma Chemical Co., St. Louis, MO, USA) was first prepared as a stock solution (dissolved in EC with ultrasonic treatment) to the desired concentrations, with the corresponding final concentrations of test solutions (30 µM and 0.3 µM; see protocols below). GABA was added to the experimental solution without a change in osmolarity.
The experimental protocols were designed to mimic the physiological conditions of the tonic (extra-synaptic) and phasic (synaptic) activation of GABAA receptors observed in central neurons, depending on the subunit compositions, respectively. GABA-evoked currents in HEK-293 cells expressing extra-synaptic (α5β3γ2L) or synaptic (α1β2γ2L) types of GABAA receptors were studied using the conventional whole-cell patch clamp technique. To mimic the physiological GABA exposure, the HEK-293 cells expressing α1β2γ2L GABAA receptors were exposed to short applications (40 ms) of 30 µM GABA, whereas HEK-293 cells expressing α5β3γ2L GABAA receptors were exposed to prolonged applications (6 s) of 0.3 µM GABA, either in the absence or presence of THDOC and/or GR3027.

T1 sequence (P14867 28-456): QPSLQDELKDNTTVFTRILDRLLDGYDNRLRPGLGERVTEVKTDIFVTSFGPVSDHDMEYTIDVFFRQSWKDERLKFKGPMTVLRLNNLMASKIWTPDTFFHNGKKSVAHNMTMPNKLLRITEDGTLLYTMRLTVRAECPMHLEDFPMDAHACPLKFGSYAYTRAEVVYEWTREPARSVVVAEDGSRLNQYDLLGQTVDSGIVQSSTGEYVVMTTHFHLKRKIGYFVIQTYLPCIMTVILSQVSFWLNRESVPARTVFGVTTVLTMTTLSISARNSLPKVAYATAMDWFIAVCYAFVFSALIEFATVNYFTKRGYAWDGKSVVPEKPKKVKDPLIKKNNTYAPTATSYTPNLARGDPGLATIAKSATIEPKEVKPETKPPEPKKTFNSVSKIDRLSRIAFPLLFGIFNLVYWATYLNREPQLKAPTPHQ
T1 sequence (P47870 25-512 limits assumed): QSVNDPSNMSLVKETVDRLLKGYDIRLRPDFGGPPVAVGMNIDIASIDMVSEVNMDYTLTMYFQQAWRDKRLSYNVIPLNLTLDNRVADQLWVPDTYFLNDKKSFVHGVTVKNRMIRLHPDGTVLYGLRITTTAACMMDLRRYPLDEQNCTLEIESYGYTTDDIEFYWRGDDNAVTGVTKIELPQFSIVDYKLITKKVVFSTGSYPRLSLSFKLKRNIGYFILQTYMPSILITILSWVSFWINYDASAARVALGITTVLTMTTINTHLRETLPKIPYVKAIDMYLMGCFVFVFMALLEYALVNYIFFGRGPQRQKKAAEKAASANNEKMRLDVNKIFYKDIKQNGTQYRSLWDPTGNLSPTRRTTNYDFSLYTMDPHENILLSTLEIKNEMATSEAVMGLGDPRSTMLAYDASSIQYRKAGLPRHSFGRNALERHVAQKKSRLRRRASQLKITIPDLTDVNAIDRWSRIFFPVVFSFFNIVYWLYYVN
T1 sequence (P18507 40-475 partner): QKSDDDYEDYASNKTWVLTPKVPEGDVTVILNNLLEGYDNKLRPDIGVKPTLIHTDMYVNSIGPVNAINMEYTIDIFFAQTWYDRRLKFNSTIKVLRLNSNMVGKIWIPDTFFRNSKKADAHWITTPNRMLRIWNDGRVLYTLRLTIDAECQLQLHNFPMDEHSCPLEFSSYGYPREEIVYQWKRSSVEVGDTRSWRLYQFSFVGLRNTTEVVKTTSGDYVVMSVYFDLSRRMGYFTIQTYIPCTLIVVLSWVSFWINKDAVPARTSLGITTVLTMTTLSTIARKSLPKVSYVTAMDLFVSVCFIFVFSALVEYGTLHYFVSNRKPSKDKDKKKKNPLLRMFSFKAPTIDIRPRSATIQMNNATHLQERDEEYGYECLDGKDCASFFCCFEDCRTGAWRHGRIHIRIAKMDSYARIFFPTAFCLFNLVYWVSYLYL

For C#C[C@]1(O)CC[C@@]2(C)[C@@H](CC[C@@H]3[C@@H]2CC[C@]2(C)/C(=N/O)CC[C@@H]32)C1 [GR3027, 3α-ethynyl-3β-hydroxyl-5α-androstan-17-oxime], the “Reduction of AUC of THDOC-induced GABA response” value (1 µM GR3027 + 200 nM THDOC + 30 µM GABA (40 ms)) was −11.6 ± 3.1, the “Change of AUC of GABA-mediated current, GR3027 alone” value (1 µM GR3027 + 30 µM GABA, no THDOC, NS, n = 21) was “–3.1 ± 1.7%” and the “Reduction of AUC of THDOC-induced GABA response” value (3 µM GR3027 + 200 nM THDOC + 30 µM GABA (40 ms)) was −22.9 ± 2.8. The “Decrease in THDOC-mediated baseline holding current shift” value (3 µM GR3027, 200 nM THDOC, absence of GABA, n = 7, p ≤ 0.05) was −38.1 ± 7.6%, the “Effect on baseline holding current or 30 µM GABA-mediated currents, GR3027 alone” value (GR3027 alone, no THDOC) was “No difference” and the “Effect on THDOC-induced GABA currents at lower concentrations” value (GR3027 below 1 µM (tested from 0.1 µM), 200 nM THDOC + 30 µM GABA) was “no reduction”.
